Results as given in US20180186815A1, “PHARMACEUTICAL COMPOSITIONS, METHODS FOR THEIR PREPARATION AND THEIR USE IN THE TREATMENT OF CANCER” (Urifer Ltd., priority 2016, published 2018).
Read-outs that look alike come from different tables or passages of the source.

What was measured:
Format in all cases: cell-based
[1] = tested on: colon cancer cell line HCT 116; assay: Growth profile / viability of HCT116 colon cancer cells, XTT test; conditions: Homo sapiens, HCT-116, 96 h, Control DMSO = 100%, read-out: percentage of viable cells, HCT116
Summary of the method: (§1)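 Cells were seeded and grown untreated overnight, then exposed to compounds at a final 5 μM (0.4% v/v DMSO). Untreated and 0.4% DMSO-only cells were the controls. Percent viable cells was measured by XTT 96 h after compound addition.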

[2] = Viability of FS non malignant fibroblastic cells, XTT test; conditions: FS cells (non-malignant fibroblastic cell line), Control DMSO = 100%, read-out: percentage of viable cells, FS
Summary of the method: as §1

[3] = tested on: colon cancer cell line RKO; assay: Growth profile / viability of RKO colon cancer cells, XTT test; conditions: 96 h, Control DMSO = 100%, read-out: percentage of viable cells, RKO
Summary of the method: as §1

[4] = tested on: colon cancer cell line HT29; assay: Growth profile / viability of HT29 colon cancer cells, XTT test; conditions: Homo sapiens, HT-29, 96 h, Control DMSO = 100%, read-out: percentage of viable cells, HT29
Summary of the method: as §1

SMILES | viability at 5 µM ([1]; first HCT116 column) | viability at 5 µM ([1]; second HCT116 column) | viability at 96 h, 5 µM ([2]; first FS column) | viability at 96 h, 5 µM ([2]; second FS column) | viability at 5 µM ([3]; first RKO column) | viability at 5 µM ([3]; second RKO column) | viability at 5 µM ([4]; first HT29 column) | viability at 5 µM ([4]; second HT29 column)
CC(C)c1ccc(-c2cn3nc(N4CCC(C(=O)N5CCN(CCN(C)C)CC5)CC4)sc3n2)cc1 [Compound Z522-0229, {2-[4-({1-[6-(4-isopropylphenyl)imidazo[2,1-b][1,3,4]thiadiazol-2-yl]piperidin-4-yl}carbonyl)piperazin-1-yl]ethyl} dimethylamine] | 87% | 99% | 79% | 101% | 45% | 47% | 74% | 77%
Cc1ccc(C)n1CCN1CCN(C(=O)C2CCN(c3nn4cc(-c5ccc(C(C)C)cc5)nc4s3)CC2)CC1 [Compound Z522-0232, 2-[4-({4-[2-(2,5-dimethyl-1H-pyrrol-1-yl)ethyl]piperazin-1-yl}carbonyl)piperidin-1-yl]-6-(4-isopropylphenyl) imidazo[2,1-b][1,3,4]thiadiazole] | 79% | 68% | 106% | 93% | 35% | 38% | 20% | 22%
CC(C)c1ccc(-c2cn3nc(N4CCC(C(=O)N5CCCCC5CCN5CCCCC5)CC4)sc3n2)cc1 (centres unmarked) [Compound Z522-0233, 6-(4-isopropylphenyl)-2-(4-{[2-(2-piperidin-1-ylethyl)piperidin-1-yl]carbonyl}piperidin-1-yl)imidazo[2,1-b][1,3,4]thiadiazole] | 1% |  |  | 3% |  | 0% | 1% | 0%
CC(C)c1ccc(-c2cn3nc(N4CCC(C(=O)N5CCCC(CN6CCOCC6)C5)CC4)sc3n2)cc1 (centres unmarked) [Compound Z522-0237, 6-(4-isopropyl-phenyl)-2-(4-{[3-(morpholin-4-yl-methyl)piperidin-1-yl]carbonyl}piperidin-1-yl)imidazo[2,1-b][1,3,4]thiadiazole] | 74% | 89% | 82% | 105% | 11% | 8% | 13% | 8%
CC(C)c1ccc(-c2cn3nc(N4CCC(C(=O)N5CCN(CC(=O)N6CCN(C)CC6)CC5)CC4)sc3n2)cc1 [Compound Z522-0238, 6-(4-isopropylphenyl)-2-[4-({4-[2-(4-methylpiperazin-1-yl)-2-oxoethyl]piperazin-1-yl}carbonyl)piperidin-1-yl]imidazo[2,1-b][1,3,4]thiadiazole] | 54% | 49% | 85% | 99% | 1% | 3% | 6% | 7%
CC(C)c1ccc(-c2cn3nc(N4CCC(C(=O)N(C)CC(=O)NCCN(C)C)CC4)sc3n2)cc1 [Compound Z522-0239, N^4-(2-[2-(dimethylamino)ethyl]amino-2-oxoethyl)-1-[6-(4-isopropylphenyl)imidazo[2,1-b][1,3,4]thiadiazol-2-yl]-N^4-methyl-4-piperidinecarboxamide] | 80% | 45% | 83% | 96% | 1% | 1% | 3% | 2%
CC(C)c1ccc(-c2cn3nc(N4CCC(C(=O)N(C)CC(=O)N5CCN(C)CC5)CC4)sc3n2)cc1 [Compound Z522-0240, 1-[6-(4-isopropylphenyl)imidazo[2,1-b][1,3,4]thiadiazol-2-yl]-N^4-methyl-N^4-[2-(4-methyl-piperazino)-2-oxoethyl]-4-piperidinecarboxamide] | 82% | 68% | 80% | 101% | 19% | 15% | 50% | 53%
CC(C)c1ccc(-c2cn3nc(N4CCC(C(=O)N5CCN(CC(=O)NCCN(C)C)CC5)CC4)sc3n2)cc1 [Compound Z522-0241, N-[2-(dimethylamino)ethyl]-2-[4-({1-[6-(4-isopropylphenyl)imidazo[2,1-b][1,3,4]thiadiazol-2-yl]piperidin-4-yl}carbonyl)piperazin-1-yl]acetamide] | 33% | 36% | 78% | 88% |  | 0% | 0% | 0%
CC(C)c1ccc(-c2cn3nc(N4CCC(C(=O)N5CCCN(c6ncccn6)CC5)CC4)sc3n2)cc1 [Compound Z522-0242, 6-(4-isopropylphenyl)-2-{4-[(4-pyrimidin-2-yl-1,4-diazepan-1-yl)carbonyl]piperidin-1-yl}imidazo[2,1-b][1,3,4]thiadiazole] | 88% | 86% | 89% | 123% | 55% | 50% | 72% | 66%
